Like-named read-outs stand apart in the source and are kept apart here.
Columns and labels:
[1] = test system: nuclear symmetric Arginine dimethylation in A549 cells; assay: PD assay (assay 2): inhibition of nuclear symmetric Arginine dimethylation (SYM10 immunohistochemistry), 48 h; format: cell-based; details: Homo sapiens
Experimental: Experimental Procedure PD Assay (Assay 2)
A549 cells (ATCC, Cat #CCL-185) were cultured in Dulbecco's Modified Eagle's Medium (DMEM) (Sigma, Cat #D5796), supplemented with 10% Fetal Calf Serum (FCS) (HyClone™, Cat #SV30160.03), 100 mM Sodium Pyruvate (Sigma, Cat #S8636), 200 mM L-Glutamine (Sigma, Cat #G7513) and 50 mg/mL gentamycin (Gibco, Cat #15750-037).
Reagents used for buffers were purchased: Dulbecco's phosphate buffered saline (DPBS) without Ca/Mg (Sigma, Cat #D8537), phosphate buffered saline (PBS) 10× (Roche, Cat #11 666 789 001), Formalin solution 10% (Sigma, HT50-1-128-4L), Methanol 100% (Sigma, Cat #32213-2.5L), Triton X-100 (Acros, Cat #215680010), Bovine Serum Albumin (BSA) (Sigma, Cat #A2153), Alexa fluor 488 goat anti-rabbit antibody (Life Technologies, Cat #A11034), HCS CellMask Deep Red Stain (Life Technologies, Cat #H32721), Hoechst Stain (Life Technologies, Cat #33258), Anti-dimethyl-Arginine, sym (SYM10) antibody (Millipore, 07-412).
Immunohistochemistry Procedure
Cells were plated at 400 cells/40 μL/well in 384 well black μplates clear bottom (Perkin Elmer) and overnight incubated at 37° C., 5% CO2. […] 80 nL of the respective dilution of the compounds was added using the Labcyte POD 810 (Labcyte) reaching a final DMSO concentration of 0.2% in cell culture. After an incubation period of 48 h at 37° C. and 5% CO2, cells were fixed in 10% formalin solution for 15 min at room temperature and 20 min in ice-cold methanol, after which they were washed 3× in DPBS. Subsequently, the cells were blocked for 1 h in blocking buffer (PBS+1% BSA and 0.5% Triton X-100) and incubated overnight at 4° C. with the SYM10 antibody diluted 1/2000 in blocking buffer. The cells were washed 3× with washing buffer (PBS+0.1% Triton X-100) and incubated with the Alexa fluor 488 goat anti-rabbit antibody diluted 1/200 in blocking buffer for 1 h at room temperature. Subsequently, they were washed 3× with washing buffer and incubated for 30 min at room temperature with PBS containing a 1/5000 dilution of Hoechst Stain and a 1/5000 dilution of the HCS CellMask Deep Red Stain. After a final wash with PBS, the plates were imaged using the 10×W lens of the Opera® system (Perkin Elmer Life Sciences) using following settings (values in nm):
In the above equations, the following variable names are used: […]
In the above equations, the following controls were used for normalization: […]
Low control: minimum level of symmetrically dimethylated Arginines (cells treated with reference compound at 10 μM).
High control: maximum level of symmetrically dimethylated Arginines (DMSO treated cells).
IC50 and pIC50 (−log IC50) values were calculated using the appropriate software.
The pIC50 values in the Table below are averaged values (Co. No. means compound number; n.d. means not determined).

PRMT5-MEP50 enzyme = target: T1, PRMT5-MEP50 enzyme (Homo sapiens, UniProt O14744); assay: In vitro assay 1b: high throughput mass spectrometer assay of SAH formation, 1.25 nM enzyme, 120 min; format: biochemical; details: averaged values; PRMT5-MEP50, 1.25 nM enzyme, 120 min; read-out: pIC50 Assay 1b (converted)
T1 construct: One virus expresses full length human PRMT5 with Flag-tag at N-terminus; Flag (N); purchased Charles River (Argenta); host or cells: insect cells (Sf9), baculovirus co-infection
T1 sequence (O14744 whole entry): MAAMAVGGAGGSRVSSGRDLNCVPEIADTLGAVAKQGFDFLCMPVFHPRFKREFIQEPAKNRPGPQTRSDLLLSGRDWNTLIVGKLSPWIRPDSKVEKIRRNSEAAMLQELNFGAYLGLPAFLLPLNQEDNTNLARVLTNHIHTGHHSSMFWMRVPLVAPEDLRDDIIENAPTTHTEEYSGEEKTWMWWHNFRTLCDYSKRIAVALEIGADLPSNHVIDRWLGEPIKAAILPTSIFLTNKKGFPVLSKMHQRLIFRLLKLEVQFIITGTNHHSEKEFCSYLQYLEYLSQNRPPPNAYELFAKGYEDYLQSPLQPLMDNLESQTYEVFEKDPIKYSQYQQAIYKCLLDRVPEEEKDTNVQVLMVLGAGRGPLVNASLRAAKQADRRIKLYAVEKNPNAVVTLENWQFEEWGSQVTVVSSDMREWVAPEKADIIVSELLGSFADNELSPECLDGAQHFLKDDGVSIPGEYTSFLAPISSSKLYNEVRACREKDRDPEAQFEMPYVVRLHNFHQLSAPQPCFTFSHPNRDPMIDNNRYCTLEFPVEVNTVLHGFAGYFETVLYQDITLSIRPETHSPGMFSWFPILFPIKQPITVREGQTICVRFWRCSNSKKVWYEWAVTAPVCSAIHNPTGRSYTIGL
T1 sequence (Q9BQA1 whole entry partner): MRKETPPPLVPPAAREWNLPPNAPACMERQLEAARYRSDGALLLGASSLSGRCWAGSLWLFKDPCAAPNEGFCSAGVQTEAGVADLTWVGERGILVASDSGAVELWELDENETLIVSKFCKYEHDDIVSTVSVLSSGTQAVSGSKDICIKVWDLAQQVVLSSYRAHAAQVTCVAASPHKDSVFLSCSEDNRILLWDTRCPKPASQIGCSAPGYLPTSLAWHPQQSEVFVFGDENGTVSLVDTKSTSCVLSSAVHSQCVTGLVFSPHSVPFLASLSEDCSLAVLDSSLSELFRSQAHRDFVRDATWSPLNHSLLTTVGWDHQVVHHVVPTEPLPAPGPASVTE
Excerpt: Experimental Procedures In Vitro Assay (Assay 1a and 1b)
PRMT5-MEP50 enzyme was purchased from Charles River (Argenta). The enzyme complex was produced in insect cells (Sf9) infected simultaneously with two baculoviruses. One virus expresses full length human PRMT5 with Flag-tag at N-terminus, the second virus expresses full length MEP50 with His6-TEV cleavage at N-terminus. The protein was affinity purified using anti-Flag (M2) beads eluted with 3×FLAG peptide, followed by His-Select eluted with 0.5M imidazole. Eluted protein was then dialysed against tris-buffered saline (TBS) (pH 8.0) containing 20% glycerol and 3 mM dithiothreitol (DTT).
Full-length untagged human recombinant histone H2A (residues 1-130, Genbank Accession #NM_021052 MW=14.1 kDa) expressed in E. coli was purchased from Reaction Biology Corporation, Cat #HMT-11-146. Reagents used for making reaction buffer or stopping reaction were purchased including Tris base (Sigma Cat #T-1503), NaCl (Sigma Cat #RGF-3270), MgCl2 (Sigma Cat #M0250), DTTI (Invitrogen Cat #15508-013) and Formic Acid (Riedel deHaen, Cat #33015)
High Throughput Mass Spectrometer Assay
PRMT5 catalyzes the sequential methylations of the terminal nitrogen atoms on the guanidine groups of arginine residues within proteins using co-substrate S-adenosyl-L-methionine (AdoMet, SAM), forming mono-methyl (MMA), symmetric-dimethyl arginine (sDMA) and S-adenosyl-L-homocysteine (AdoHcy, SAH). The enzyme activity was determined by following the product SAH formation using high throughput mass spectrometry (Agilent Rapidfire 300 System coupled to a Sciex 4000 series QTrap® triple-quad MS/MS). The reaction buffer was 20 mM Tris-HCl, pH 8.5, 50 mM NaCl, 5 mM MgCl2 and 1 mM DTT. The reaction activity was stopped using 1% formic acid (final concentration).
The IC50 Studies were performed using eleven point dosing series made for each compound by serially diluted 1:2 in dimethyl sulfoxide (DMSO), with point 12 being a DMSO control. Compounds were first spotted to plates, and followed by addition of 2 μM SAM and 0.6 μM H2A (histone H2A) solution mixture. The same volume of enzyme solution was added to initiate the enzymatic reactions. The final concentrations of the reaction are at 1 μM SAM, 0.3 μM H2A and 10 nM enzyme (assay 1a) or 1.25 nM enzyme (assay 1b). The reaction was incubated at 30° C. for 60 minutes (min) when 10 nM enzyme was used and for 120 min when 1.25 nM enzyme was used. Subsequently, the reaction was quenched by addition of formic acid to a final concentration of 1%. The inhibitions of SAH formation in the presence of compounds were calculated as a percentage of the control relative to the uninhibited reaction as a function of inhibitor concentration. The data were fit as follows: Y=Bottom+(Top−Bottom)/(1+10^((log IC50−X)*h))
where IC50 is the inhibitor concentration (same unit as X) at 50% inhibition and h is the Hill slope. Y is percent of inhibition, X is log of compound concentration. Bottom and Top are the plateaus in same units as Y.

[2] = A549, averaged values, PD assay, A549 cells, symmetric Arginine dimethylation, read-out: pIC50 Assay 2 (converted)

SMILES	IC50 [1, 2] [nM]	IC50 (PRMT5-MEP50 enzyme) [nM]	IC50 ([1]; A549, read-out: pIC50 Assay 2 (converted)) [nM]
COc1ncnc2c1ccn2[C@@H]1C[C@H](COc2ccc3cc(Cl)c(N)nc3c2)[C@@H](O)[C@H]1O [Compound 228]		5.01	
Nc1nc2cc(CC[C@H]3C[C@@H](n4ccc5ncccc54)[C@H](O)[C@@H]3O)ccc2cc1Cl [Compound 248]	158	50.1	
Nc1nc2cc(CC[C@H]3C[C@@H](n4ccc5c(N)nc(Cl)nc54)[C@H](O)[C@@H]3O)ccc2cc1Cl [Compound 240]	< 1.17	< 0.2	
Nc1nc2cc(CC[C@H]3C[C@@H](n4ccc5cncnc54)[C@H](O)[C@@H]3O)ccc2cc1Cl [Compound 242]	< 1.17	1	
Nc1ncnc2c1ccn2[C@@H]1C[C@H](OCc2ccc3ccc(NCC4CC4)nc3c2)[C@@H](O)[C@H]1O [Compound 160]	15.8	0.794	
CNc1ccc2ccc(CC[C@H]3C[C@@H](n4ccc5c(NC)ncnc54)[C@H](O)[C@@H]3O)cc2n1 [Compound 178]	10	0.794	
CNc1ncnc2c1ccn2[C@@H]1C[C@H](CCc2ccc3ccc(NCC(F)(F)F)nc3c2)[C@@H](O)[C@H]1O [Compound 162]	158	7.94	
Nc1ccc2ccc(CC[C@H]3C[C@@H](n4ccc5c(N)ncnc54)[C@H](O)[C@@H]3O)cc2n1 [Compound 76]			0.158
CC(C)Nc1ncnc2c1ccn2[C@@H]1C[C@H](CCc2ccc3cc(Cl)c(N)nc3c2)[C@@H](O)[C@H]1O [Compound 196]	100	2	
CNc1ncnc2c1ccn2[C@@H]1C[C@H](CCc2ccc3ccc(NCC4CC4)nc3c2)[C@@H](O)[C@H]1O [Compound 209]	15.8	0.316	
CNc1ncnc2c1ccn2[C@@H]1C[C@H](COc2ccc3cc(Cl)c(N)nc3c2)[C@@H](O)[C@H]1O [Compound 227]		1.26	
Nc1nc2cc(CC[C@H]3C[C@@H](n4ccc5cnccc54)[C@H](O)[C@@H]3O)ccc2cc1Cl [Compound 247]		0.794	
Nc1nc2cc(CC[C@H]3C[C@@H](n4ccc5c(N)nccc54)[C@H](O)[C@@H]3O)ccc2cc1Br [Compound 252]		0.631	
CNc1ncnc2c1ccn2[C@@H]1C[C@H](COc2ccc3ccc(NCC4CC4)nc3c2)[C@@H](O)[C@H]1O [Compound 225]		6.31	
Nc1ncnc2c1ccn2[C@@H]1C[C@H](COc2ccc3ccc(NCC4CC4)nc3c2)[C@@H](O)[C@H]1O [Compound 224]		< 0.2	

Second part, led by results:

IC50 [1, 2] [nM]	IC50 (PRMT5-MEP50 enzyme) [nM]	SMILES	IC50 ([1]; A549, read-out: pIC50 Assay 2 (converted)) [nM]
25.1	0.501	COc1ncnc2c1ccn2[C@@H]1C[C@H](CCc2ccc3cc(Cl)c(N)nc3c2)[C@@H](O)[C@H]1O [Compound 195]	
1.58	0.631	CNc1ncnc2c1ccn2[C@@H]1C[C@H](CCc2ccc3cc(Cl)c(N)nc3c2)[C@@H](O)[C@H]1O [Compound 194]	
1.26	0.2	Nc1nc2cc(OC[C@H]3C[C@@H](n4ccc5c(N)ncnc54)[C@H](O)[C@@H]3O)ccc2cc1Cl [Compound 223]	
	< 0.2	Nc1nc2cc(OC[C@H]3O[C@@H](n4ccc5c(N)ncnc54)[C@H](O)[C@@H]3O)ccc2cc1Br [Compound 233]	
25.1	10	CNc1ncnc2c1ccn2[C@@H]1O[C@H](CCc2ccc3cc(Br)c(N)nc3c2)[C@@H](O)[C@H]1O [Compound 239]	
63.1	3.98	CNc1ncnc2c1ccn2[C@@H]1O[C@H](CCc2ccc3cc(Cl)c(N)nc3c2)[C@@H](O)[C@H]1O [Compound 198]	
501	631	CNc1nc2cc(CC[C@H]3C[C@@H](n4ccc5c(N)ncnc54)[C@H](O)[C@@H]3O)ccc2cc1F [Compound 157]	
	794	Nc1nc2cc(OC[C@H]3O[C@@H](n4ccc5c(O)ncnc54)[C@H](O)[C@@H]3O)ccc2cc1Br [Compound 234]	
	0.2	Nc1nc2cc(CC[C@H]3O[C@@H](n4ccc5c(N)ncnc54)[C@H](O)[C@@H]3O)ccc2cc1Br [Compound 235]	
1000	6.31	COc1ncnc2c1ccn2[C@@H]1C[C@H](CCc2ccc3cc(C(F)(F)F)c(N)nc3c2)[C@@H](O)[C@H]1O [Compound 200]	
251	158	Nc1ncnc2c1ccn2[C@@H]1C[C@H](CCc2ccc3cc(F)c(NCC4CC4)nc3c2)[C@@H](O)[C@H]1O [Compound 155]	
31.6	200	Nc1ncnc2c1ccn2[C@@H]1C[C@H](CCc2ccc3cc(Br)c(NC4CC4)nc3c2)[C@@H](O)[C@H]1O [Compound 153]	
	< 0.2	Nc1nc2cc(OC[C@H]3C[C@@H](n4ccc5c(N)ncnc54)[C@H](O)[C@@H]3O)ccc2cc1Br [Compound 236]	
	0.631	Nc1nc2cc(CC[C@H]3O[C@@H](n4ccc5c(N)ncnc54)[C@H](O)[C@@H]3O)ccc2cc1F [Compound 231]	
	39.8	CNc1ncnc2c1ccn2[C@@H]1O[C@H](CCc2ccc3cc(F)c(N)nc3c2)[C@@H](O)[C@H]1O [Compound 229]	
	3.98	CNc1ncnc2c1ccn2[C@@H]1O[C@H](COc2ccc3cc(Br)c(N)nc3c2)[C@@H](O)[C@H]1O [Compound 232]	
0.251		Nc1nc2cc(CC[C@H]3C[C@@H](n4ccc5c(N)ncnc54)[C@H](O)[C@@H]3O)ccc2cc1Br [Compound 80]	
	3.16	Nc1nc2cc(CC[C@H]3O[C@@H](n4ccc5c(N)ncnc54)[C@H](O)[C@@H]3O)ccc2cc1C(F)(F)F [Compound 244]	
	631	COc1ncnc2c1ccn2[C@@H]1O[C@H](CCc2ccc3cc(F)c(N)nc3c2)[C@@H](O)[C@H]1O [Compound 230]	
